The text below walks through data of patent US20250197437A1, “CANNABINOID COMPLEXES WITH IMPROVED PROPERTIES” (KEMIJSKI INŠTITUT, priority 2022, published 2025).

Like-named read-outs stand apart in the source and are kept apart here.

The nature of the data set: Water solubility test of cannabinoid:glucosamine complexes and pure cannabinoids (HPLC of supernatant). As to conditions: thermodynamic from solid. The format is physicochemical. How it is done:
If considered necessary, sonication can also be applied. Afterwards, the solution is centrifuged at 3.000 g for 3 minutes and the supernatant is transferred to a HPLC vial. Concentration of dissolved cannabinoids is determined by analysis on an Agilent 1260 Infinity (Santa Clara, CA, USA) HPLC system. The chromatographic method is adapted from the literature (Križman, 2019). In short, the separation is performed on a Phenomenex (Torrance, CA, USA) Luna C18 (2) (octadecyl silica) chromatographic column, with dimensions 150 mm×3 mm i.d., 3 μm particle size, and temperature set at 37° C. Mobile phase is isocratic consisting of water/acetonitrile with a ratio of 9:31 (v/v), with 0.1% formic acid (v/v) and 10 mM ammonium formate, at a flow rate of 0.8 mL/min and injection volume 5 μL. The UV detection wavelength is 275 nm. The concentration of cannabinoids is determined using an external standard method.
For water solubility studies, 1-1.5 mg of the prepared complex was mixed with 1 mL of distilled water and stirred for 5-10 min, if necessary also sonication was applied. Afterwards the solution was centrifuged at 3.000 g for 3 minutes and the supernatant was transferred to the vials. Concentration of dissolved cannabinoids was determined by HPLC-DAD system (Agilent 1260 Infinity, Santa Clara, CA, USA).

[1] abbreviates: 1-1.5 mg sample in 1 mL distilled water, stirred 5-10 min, centrifuged, HPLC, printed as greater-than/less-than bounds, read-out: Water solubility of cannabinoid.

As usually defined, the solubility is the dissolved amount per volume that the medium holds. Turning to `C=C(C)[C@@H]1CCC(C)=C[C@H]1c1c(O)cc(CCCCC)cc1O` [CBD, cannabidiol], under setting [1], the solubility was below 1 µg/mL.

Regarding `C=C(C)[C@@H]1CCC(C)=C[C@H]1c1c(O)cc(CCCCC)c(C(=O)O)c1O` [CBDA, cannabidiolic acid], the solubility under setting [1] is below 2 µg/mL.

Under “water”, `CCCCCc1cc(O)c(C/C=C(\C)CCC=C(C)C)c(O)c1` [CBG, cannabigerol] yielded a solubility below 1 µg/mL.
